Test results taken from patent US11420966B2 (ACLARIS THERAPEUTICS, INC., priority 2019, dated 2022).

Key:
JAK1 = JAK1 (Homo sapiens (Human), UniProt P23458); assay: JAK1 enzyme activity assay (Thermo Fisher SelectScreen, Z-lyte); type: biochemical; details: read-out: JAK1 Inhibition IC50
Method: (§1) JAK1, JAK2, JAK3, and Tyk-2 Enzyme Activity Assays
(§2) The inhibitory potency of candidate compounds of JAK1, JAK2, and Tyk-2 was done at Thermo Fisher Scientific in their Selectscreen using a Z-lyte assay. Following are the assay details for each enzyme.
JAK: The 2×JAK-enzyme/Tyr 06 mixture is prepared in 50 mM HEPES pH 6.5, 0.01% BRIJ-35, 10 mM MgCl2, 1 mM EGTA, 0.02% NaN3. The final 10 μL of the Kinase Reaction consists of 21.2-91.5 ng JAK and 2 M Tyr 06 in 50 mM HEPES pH 7.0, 0.01% BRIJ-35, 10 mM MgCl2, 1 mM EGTA, 0.01% NaN3. After the one hour Kinase Reaction incubation, 5 μL of a 1:128 dilution of Development Reagent is added.
(§3) Data reduction for JAK1, JAK2 and TYK2 is done the same, independent of the enzyme run. In summary, background signal is defined in the absence of enzyme and uninhibited signal is defined in the presence of vehicle (2% DMSO) alone. Compounds were evaluated in an 11 point dose-response ranging from […] to 0.34 nM. IC50 values of compounds are determined using a 4 parameter logistical fit of emission ratio as a function of the concentration of compound.

JAK2 = JAK2 (Homo sapiens (Human), UniProt O60674); assay: JAK2 enzyme activity assay (Thermo Fisher SelectScreen, Z-lyte); type: biochemical; details: read-out: JAK2 Inhibition IC50
Method: as §1, §2
JAK2: The 2×JAK2/Tyr 06 mixture is prepared in 50 mM HEPES pH 7.5, 0.01% BRIJ-35, 10 mM MgCl2, 1 mM EGTA. The final 10 μL Kinase Reaction consists of 0.12-0.5 ng JAK2 and 2 M Tyr 06 in 50 mM HEPES pH 7.5, 0.01% BRIJ-35, 10 mM MgCl2, 1 mM EGTA. After the one hour Kinase Reaction incubation, 5 μL of a 1:128 dilution of Development Reagent A is added.
as §3

JAK3 (a.a. 781-1124) = JAK3 (a.a. 781-1124) (Homo sapiens (Human), UniProt P52333); assay: JAK3 enzyme activity assay (SRCtide phosphorylation, Caliper); type: biochemical; details: 1 uM ATP; read-out: JAK3 Inhibition IC50
Method: as §1
Kinase reactions were run in a 384-well Greiner plate with 2% final DMSO concentration under the buffer conditions of 20 mM HEPES, pH 7.5, 10 mM MgCl2, 0.01% BSA, and 0.0005% Tween-20. The kinase reaction components were 2.5 nM JAK3, 1 μM SRCtide peptide and 1 uM ATP. Examples were tested in dose-response starting at 2 M (11 concentrations, 3-fold serial dilution, duplicate reactions). The reactions were incubated at room temperature for 40 minutes, then stopped by adding a 1:1 volume of 30 mM EDTA in 20 mM HEPES, pH 7.5 (15 mM EDTA final). After the reaction was stopped, the phosphorylated and unphosphorylated peptides were separated and quantified using a Caliper LC3000/EZ-Reader system and HTS Well Analyzer Software (Caliper, A PerkinElmer Company, Hopkinton, Mass.). GraFit (Erithacus Software Ltd., Horley, U.K.) was used to calculate inhibitor potency by fitting dose-response data to the 4-parameter logistical IC50 equation.

Tyk-2 = Tyk-2 (Homo sapiens (Human), UniProt P29597); assay: Tyk-2 enzyme activity assay (Thermo Fisher SelectScreen, Z-lyte); type: biochemical; details: read-out: Tyk-2 Inhibition IC50
Method: as §1, §2
TYK2: The 2×TYK2/Tyr 03 mixture is prepared in 50 mM HEPES pH 6.5, 0.01% BRIJ-35, 10 mM MgCl2, 1 mM EGTA, 0.02% NaN3. The final 10 μL Kinase Reaction consists of 3.75-15 ng TYK2 and 2 M Tyr 03 in 50 mM HEPES pH 7.0, 0.01% BRIJ-35, 10 mM MgCl2, 1 mM EGTA, 0.01% NaN3. After the one hour KinaseReaction incubation, 5 μL of a 1:4096 dilution of Development Reagent A is added.
as §3

[1] = system: IL-2 stimulated STAT5 phosphorylation on Tyr694 (JAK1/3); assay: JAK1/3 cellular target modulation: IL-2 stimulated phospho-STAT5 in PBMC; type: cell-based; details: human PBMC, IL-2 25 ng/ml; read-out: IL2-STAT5 IC50
Source text: (§4) JAK Cellular Target Modulation Assays
(§5) Target modulation was based upon the ability of a compound to inhibit JAK isoform specific phosphorylation of selected substrates. IL-2 stimulated STAT5 phosphorylation on Tyr694 was used to assess JAK1/3 compound selectivity. GM-CSF stimulated STAT5 phosphorylation on Tyr694 was used to assess JAK2 compound selectivity. IFNγ stimulated STAT1 phosphorylation on Tyr701 was used to assess JAK1/2 compound selectivity. IL-12 stimulated STAT4 phosphorylation on Tyr693 was used to assess JAK2/TYK2 compound selectivity. For all four assays, human PBMC from frozen stocks were thawed, pelleted, resuspended in complete media (90% RPMI, 10% heat inactivated FBS, 10 mM HEPES, 47 μM 2-ME, pen/strep) and placed in wells of a 96 well V-bottom plate at 200,000 per well in 120 μl complete media. Compounds were added as 15 μl per well of 10× working stock solutions in complete media with 1% DMSO (or medium with 1% DMSO for controls) and placed on a plate shaker in a 37° C. incubator with 5% CO2 for 1 hour with gentle shaking (setting of 3). Stimulation used the addition of soluble cytokines. For the JAK1/3 phospho-STAT5 assay, 15 μl of 10× working stock recombinant human IL-2 was added to a final concentration of 25 ng/ml. For the JAK2 phospho-STAT5 assay, 15 μl of 10× working stock recombinant human GM-CSF was added to a final concentration of 5 ng/ml. For the JAK1/2 phospho-STAT1 assay, 15 μl of 10× working stock of recombinant human IFNγ was added to a final concentration of 10 ng/ml. For the JAK2/TYK2 phospho-STAT4 assay, 15 μl of 10× working stock of recombinant human IL-12 was added to a final concentration of 1.7 ng/ml. Plates were then placed back on the plate shaker in the incubator for an additional 5, 5, 10, and 25 minutes respectively upon which the plates were removed from the incubator, sealed with a plate sealer and the cells pelleted at 400×g for 5 minutes. After pelleting, the media was removed by aspiration and the cells were lysed in assay specific cell lysis buffer. The levels of phospho-STATS were determined using a Phospho (Tyr694) STAT5a,b Whole Cell Lysate kit from Meso Scale Discovery. Levels of phospho-STAT1 were determined using a CST-PathScan Phospho-STAT1 (Tyr701) Sandwich ELISA kit. Levels of phospho-STAT4 were determined using a Phospho-STAT4 (Tyr693) Whole Cell Lysate kit from Meso Scale Discovery.

[2] = system: IFNγ stimulated STAT1 phosphorylation on Tyr701 (JAK1/2); assay: JAK1/2 cellular target modulation: IFNγ stimulated phospho-STAT1 in PBMC; type: cell-based; details: human PBMC, IFNγ 10 ng/ml; read-out: Infγ-STAT1 IC50
Source text: as §4, §5

JAK3 (a.a. 781-1124), sequence (P52333 781-1124): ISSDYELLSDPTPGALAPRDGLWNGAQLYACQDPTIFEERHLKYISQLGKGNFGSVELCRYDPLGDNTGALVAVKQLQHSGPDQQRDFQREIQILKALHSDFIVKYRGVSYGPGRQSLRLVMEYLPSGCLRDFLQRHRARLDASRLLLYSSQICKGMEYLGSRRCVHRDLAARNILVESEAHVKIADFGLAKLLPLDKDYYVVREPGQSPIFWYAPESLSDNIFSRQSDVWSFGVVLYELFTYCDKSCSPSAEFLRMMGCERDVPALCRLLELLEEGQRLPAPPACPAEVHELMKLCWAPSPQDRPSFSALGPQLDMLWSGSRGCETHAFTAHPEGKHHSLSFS
JAK2, sequence (O60674 whole entry): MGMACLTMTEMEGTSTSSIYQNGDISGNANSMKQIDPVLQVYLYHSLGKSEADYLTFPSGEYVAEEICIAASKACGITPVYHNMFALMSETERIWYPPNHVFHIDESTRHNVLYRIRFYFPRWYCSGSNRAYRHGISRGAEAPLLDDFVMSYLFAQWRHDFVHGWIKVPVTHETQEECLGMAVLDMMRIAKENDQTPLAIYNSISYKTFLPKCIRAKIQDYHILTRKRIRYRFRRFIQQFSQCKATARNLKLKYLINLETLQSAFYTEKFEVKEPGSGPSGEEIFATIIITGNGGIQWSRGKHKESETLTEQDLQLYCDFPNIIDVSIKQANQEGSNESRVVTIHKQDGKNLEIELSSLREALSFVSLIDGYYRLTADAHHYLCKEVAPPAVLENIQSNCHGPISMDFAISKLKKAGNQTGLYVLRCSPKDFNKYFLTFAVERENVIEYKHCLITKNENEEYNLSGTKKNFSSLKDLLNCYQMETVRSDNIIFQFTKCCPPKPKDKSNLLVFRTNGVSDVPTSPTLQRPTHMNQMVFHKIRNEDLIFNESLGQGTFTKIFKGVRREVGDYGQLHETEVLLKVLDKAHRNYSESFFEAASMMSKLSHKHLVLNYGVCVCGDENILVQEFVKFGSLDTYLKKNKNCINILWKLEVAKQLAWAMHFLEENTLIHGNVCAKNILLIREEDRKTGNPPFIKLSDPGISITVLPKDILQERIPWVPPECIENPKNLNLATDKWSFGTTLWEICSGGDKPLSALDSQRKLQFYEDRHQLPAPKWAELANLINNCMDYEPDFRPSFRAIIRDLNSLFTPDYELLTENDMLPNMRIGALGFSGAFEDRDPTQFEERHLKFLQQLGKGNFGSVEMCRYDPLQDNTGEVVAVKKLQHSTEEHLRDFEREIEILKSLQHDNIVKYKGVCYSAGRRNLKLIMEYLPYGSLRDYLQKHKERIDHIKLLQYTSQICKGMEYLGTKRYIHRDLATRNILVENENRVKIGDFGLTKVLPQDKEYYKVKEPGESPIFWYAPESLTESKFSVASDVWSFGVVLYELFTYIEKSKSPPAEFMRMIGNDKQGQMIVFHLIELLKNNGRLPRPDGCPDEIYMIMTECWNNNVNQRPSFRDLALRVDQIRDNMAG
JAK1, sequence (P23458 whole entry): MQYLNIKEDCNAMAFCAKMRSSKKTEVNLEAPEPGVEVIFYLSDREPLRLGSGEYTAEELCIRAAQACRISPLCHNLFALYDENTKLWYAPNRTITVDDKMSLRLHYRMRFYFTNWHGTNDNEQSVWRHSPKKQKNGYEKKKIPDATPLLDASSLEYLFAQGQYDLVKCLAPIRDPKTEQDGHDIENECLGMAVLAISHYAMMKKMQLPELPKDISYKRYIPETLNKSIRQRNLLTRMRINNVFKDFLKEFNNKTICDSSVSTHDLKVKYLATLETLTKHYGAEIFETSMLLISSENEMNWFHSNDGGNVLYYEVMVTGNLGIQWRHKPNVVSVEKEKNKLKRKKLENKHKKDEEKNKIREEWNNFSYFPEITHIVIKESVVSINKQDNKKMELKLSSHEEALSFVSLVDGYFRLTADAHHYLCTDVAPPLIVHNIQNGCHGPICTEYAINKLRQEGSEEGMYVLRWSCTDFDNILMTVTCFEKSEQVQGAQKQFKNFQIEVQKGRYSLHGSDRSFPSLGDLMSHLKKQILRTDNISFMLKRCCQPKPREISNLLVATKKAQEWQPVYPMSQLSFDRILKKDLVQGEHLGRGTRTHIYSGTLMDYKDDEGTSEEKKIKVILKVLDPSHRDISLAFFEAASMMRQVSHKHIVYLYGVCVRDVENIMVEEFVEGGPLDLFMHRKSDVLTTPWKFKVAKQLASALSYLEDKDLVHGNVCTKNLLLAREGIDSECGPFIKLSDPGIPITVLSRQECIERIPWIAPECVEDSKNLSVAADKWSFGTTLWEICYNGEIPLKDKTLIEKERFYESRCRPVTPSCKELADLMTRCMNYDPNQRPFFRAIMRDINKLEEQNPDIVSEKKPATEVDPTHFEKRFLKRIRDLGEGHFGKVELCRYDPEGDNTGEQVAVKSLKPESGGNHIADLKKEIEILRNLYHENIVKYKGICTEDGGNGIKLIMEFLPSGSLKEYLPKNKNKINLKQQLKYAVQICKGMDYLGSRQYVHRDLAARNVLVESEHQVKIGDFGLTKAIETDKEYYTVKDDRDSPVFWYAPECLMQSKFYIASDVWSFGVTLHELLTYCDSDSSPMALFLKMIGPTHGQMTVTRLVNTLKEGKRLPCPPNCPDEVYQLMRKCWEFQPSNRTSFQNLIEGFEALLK
Tyk-2, sequence (P29597 whole entry): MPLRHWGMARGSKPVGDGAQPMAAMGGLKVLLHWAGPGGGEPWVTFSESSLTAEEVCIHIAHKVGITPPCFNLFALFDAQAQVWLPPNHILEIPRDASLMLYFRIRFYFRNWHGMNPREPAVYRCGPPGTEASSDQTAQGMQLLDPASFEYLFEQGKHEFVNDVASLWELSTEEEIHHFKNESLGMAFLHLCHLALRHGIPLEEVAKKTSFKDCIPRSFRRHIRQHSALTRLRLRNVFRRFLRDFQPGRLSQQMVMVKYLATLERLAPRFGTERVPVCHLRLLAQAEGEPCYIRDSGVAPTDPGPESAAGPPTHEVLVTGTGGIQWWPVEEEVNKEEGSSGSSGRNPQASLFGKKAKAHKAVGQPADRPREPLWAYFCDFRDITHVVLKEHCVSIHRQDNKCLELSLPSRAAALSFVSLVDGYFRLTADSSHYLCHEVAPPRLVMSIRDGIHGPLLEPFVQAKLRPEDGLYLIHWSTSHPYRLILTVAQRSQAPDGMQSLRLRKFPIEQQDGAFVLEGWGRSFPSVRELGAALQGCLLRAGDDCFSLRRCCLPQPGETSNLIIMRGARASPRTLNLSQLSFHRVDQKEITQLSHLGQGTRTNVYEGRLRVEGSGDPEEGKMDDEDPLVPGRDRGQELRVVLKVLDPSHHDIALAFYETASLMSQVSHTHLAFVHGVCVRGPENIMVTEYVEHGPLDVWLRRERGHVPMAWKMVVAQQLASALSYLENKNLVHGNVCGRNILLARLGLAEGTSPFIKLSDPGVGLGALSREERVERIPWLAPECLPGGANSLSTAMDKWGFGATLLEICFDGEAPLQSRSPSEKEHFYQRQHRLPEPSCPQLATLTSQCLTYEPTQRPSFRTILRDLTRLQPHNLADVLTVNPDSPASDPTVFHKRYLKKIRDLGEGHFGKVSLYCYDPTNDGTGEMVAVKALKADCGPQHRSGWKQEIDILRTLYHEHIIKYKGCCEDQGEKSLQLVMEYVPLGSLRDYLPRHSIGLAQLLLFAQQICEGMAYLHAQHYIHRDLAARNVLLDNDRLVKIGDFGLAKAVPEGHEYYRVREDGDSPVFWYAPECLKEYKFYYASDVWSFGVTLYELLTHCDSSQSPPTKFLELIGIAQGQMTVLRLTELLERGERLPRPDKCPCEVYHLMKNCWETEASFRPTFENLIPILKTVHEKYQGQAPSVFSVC

Row | IC50 (JAK1) [nM] | IC50 (JAK2) [nM] | IC50 (JAK3 (a.a. 781-1124)) [nM] | IC50 (Tyk-2) [nM] | IC50 [1] [nM] | IC50 [2] [nM] | Compound
1 | 10 to 100 | 10 to 100 | 10 to 100 | 10 to 100 | 100 to 1000 | 100 to 1000 | N#CCC(=O)N1CCC[C@@H](Nc2c(-c3cscn3)cnc3[nH]ccc23)C1 [Example 1, (R)-3-oxo-3-(3-((5-(thiazol-4-yl)-1H-pyrrolo[2,3-b]pyridin-4-yl)amino)piperidin-1-yl)propanenitrile]
2 | 10 to 100 | 100 to 1000 | 10 to 100 | 100 to 1000 | 100 to 1000 | > 1000 | Cc1ncc(-c2cnc3[nH]ccc3c2N[C@@H]2CCCN(C(=O)CC#N)C2)s1 [Example 3, (R)-3-(3-((5-(2-methylthiazol-5-yl)-1H-pyrrolo[2,3-b]pyridin-4-yl)amino)piperidin-1-yl)-3-oxopropanenitrile]
3 | ≤ 10 |  |  |  |  |  | N#CCC(=O)N1CCC[C@@H](Nc2c(-c3nncs3)cnc3[nH]ccc23)C1 [Example 8, (R)-3-(3-((5-(1,3,4-thiadiazol-2-yl)-1H-pyrrolo[2,3-b]pyridin-4-yl)amino)piperidin-1-yl)-3-oxopropanenitrile]
4 | 10 to 100 | 10 to 100 | 10 to 100 | 100 to 1000 | > 1000 | > 1000 | N#CCC(=O)N1CCC[C@@H](Nc2c(-c3nnc[nH]3)cnc3[nH]ccc23)C1 [Example 11, (R)-3-(3-((5-(4H-1,2,4-triazol-3-yl)-1H-pyrrolo[2,3-b]pyridin-4-yl)amino)piperidin-1-yl)-3-oxopropanenitrile]
5 | > 1000 | > 1000 | > 1000 | > 1000 | > 1000 |  | Cn1ccnc1-c1cnc2[nH]ccc2c1N[C@@H]1CCCN(C(=O)CC#N)C1 [Example 17, (R)-3-(3-((5-(1-methyl-1H-imidazol-2-yl)-1H-pyrrolo[2,3-b]pyridin-4-yl)amino)piperidin-1-yl)-3-oxopropanenitrile]
6 | ≤ 10 |  | ≤ 10 | ≤ 10 |  |  | N#CCC(=O)N1CCC[C@@H](Nc2c(-c3ccncn3)cnc3[nH]ccc23)C1 [Example 24, (R)-3-oxo-3-(3-((5-(pyrimidin-4-yl)-1H-pyrrolo[2,3-b]pyridin-4-yl)amino)piperidin-1-yl)propanenitrile]
7 | ≤ 10 |  |  | 10 to 100 |  |  | Cc1ccnc(-c2cnc3[nH]ccc3c2N[C@@H]2CCCN(C(=O)CC#N)C2)n1 [Example 60]

Second part, the compound before the results:

Row | Compound | IC50 (JAK1) [nM] | IC50 (JAK2) [nM] | IC50 (JAK3 (a.a. 781-1124)) [nM] | IC50 (Tyk-2) [nM] | IC50 [1] [nM] | IC50 [2] [nM]
8 | C[C@@H]1C[C@H](Nc2c(-c3ncco3)cnc3[nH]ccc23)CN(C(=O)CC#N)C1 (single isomer, unassigned) [Example 9] | 100 to 1000 | 100 to 1000 | 10 to 100 | 100 to 1000 | > 1000 | 
9 | CNC(=O)c1coc(-c2cnc3[nH]ccc3c2N[C@H]2C[C@@H](C)CN(C(=O)CC#N)C2)n1 [Example 32, 2-(4-(((3S,5R)-1-(2-cyanoacetyl)-5-methylpiperidin-3-yl)amino)-1H-pyrrolo[2,3-b]pyridin-5-yl)-N-methyloxazole-4-carboxamide] | 100 to 1000 | 100 to 1000 | 10 to 100 | 100 to 1000 | > 1000 | 
10 | CN(C(=O)CC#N)C1CCN(c2nccc(-c3cnc4[nH]ccc4c3N[C@@H]3CCCN(C(=O)CC#N)C3)n2)C1 (stereo partly drawn) [Example 50, 2-cyano-N-(1-(4-(4-(((R)-1-(2-cyanoacetyl)piperidin-3-yl)amino)-1H-pyrrolo[2,3-b]pyridin-5-yl)pyrimidin-2-yl)pyrrolidin-3-yl)-N-methylacetamide] | ≤ 10 | 10 to 100 | ≤ 10 | 10 to 100 | > 1000 | 
11 | CN(C)S(=O)(=O)Nc1ccnc(-c2cnc3[nH]ccc3c2N[C@@H]2CCCN(C(=O)CC#N)C2)c1 [Example 54, (R)-N-(2-(4-((1-(2-cyanoacetyl)piperidin-3-yl)amino)-1H-pyrrolo[2,3-b]pyridin-5-yl)pyridin-4-yl)N,N-dimethyl sulfuric diamide] | 10 to 100 | 10 to 100 | 100 to 1000 | 100 to 1000 | > 1000 | 
12 | CS(=O)(=O)Nc1ccnc(-c2cnc3[nH]ccc3c2N[C@@H]2CCCN(C(=O)CC#N)C2)c1 [Example 56, (R)-N-(2-(4-((1-(2-cyanoacetyl)piperidin-3-yl)amino)-1H-pyrrolo[2,3-b]pyridin-5-yl)pyridin-4-yl)methanesulfonamide] | 10 to 100 | 100 to 1000 | 100 to 1000 | 100 to 1000 | > 1000 | 
13 | C[C@@H]1C[C@H](Nc2c(-c3ccncn3)cnc3[nH]ccc23)CN(C(=O)CC#N)C1 [Example 57, 3-((3R,5S)-3-methyl-5-((5-(pyrimidin-4-yl)-1H-pyrrolo[2,3-b]pyridin-4-yl)amino)piperidin-1-yl)-3-oxopropanenitrile] | 100 to 1000 | 100 to 1000 | 10 to 100 | 100 to 1000 | > 1000 | 
14 | CNC(=O)c1ccnc(-c2cnc3[nH]ccc3c2N[C@@H]2CCCN(C(=O)CC#N)C2)c1 [Example 61, (R)-2-(4-((1-(2-cyanoacetyl)piperidin-3-yl)amino)-1H-pyrrolo[2,3-b]pyridin-5-yl)-N-methylisonicotinamide] | 10 to 100 | 10 to 100 | 10 to 100 | 100 to 1000 | > 1000 | 
